Literature values as cited in US20240207270A1, “COMPOUNDS AND COMPOSITIONS FOR MODULATING LIPID METABOLISM” (WaveBreak Inc., priority 2021, published 2024).

Molecular target: ROCK
Conditions: ATP-competitive inhibitor of ROCK

In the case of `Cc1cncc2cccc(S(=O)(=O)N3CCCNC[C@@H]3C)c12` [(S)-H-1152], the Ki is listed as 1.6 nM.
